# According to a melting point compilation (Tetko et al.; mined from patent text by program, amines drawn as free bases though some values may be those of a salt):
row,Structure (SMILES),melting point [°C]
1,CC(C)CC1(C(CCN2C(=O)c3ccccc3C2=O)C(=O)NO)CCN(Cc2ccccc2)C1=O (stereo unspecified),162 to 164
2,CC(C)C[C@H](NC(=O)C1CCCCC1)C(=O)N[C@@H](C(C)C)[C@@H](O)c1c(-c2ccccc2)c1=O,116 to 120
3,N#CC1=C(C2CC(=O)N(Cc3ccccc3)C2)Nc2n[nH]cc2C1c1ccccc1Cl (stereo unspecified),> 230
4,Nc1nc(OCC2CC2)c2ncn(C3CC(F)C(CO)O3)c2n1 (stereo unspecified),80 to 81
5,CON=C(C(C)=NN=Cc1ccccc1-n1c(OC)nn(C)c1=O)c1cccc(C(F)(F)F)c1,157 to 161
6,O=C(O)c1ccc(S(=O)(=O)NCCSC2c3ccccc3COc3ccc(OCc4ccc5ccccc5n4)cc32)cc1 (stereo unspecified),113 to 115
7,O=C(O)C(=O)c1ccc(OCc2cc3ccccc3o2)cc1,120
8,COc1ccc2c3ccc(OC)cc3n(-c3ccccc3OC)c2c1,148
9,O=c1[nH][nH]c(C(F)(F)F)c1Cc1ccc(F)cc1,159 to 160
10,O=S(=O)(Cl)c1ccc(F)c2nonc12,64 to 66
11,O=c1[nH]c(=O)n(C2OC(CBr)C(O)C2F)cc1C=CBr (stereo unspecified),223
12,CCC(=Cc1ccc(OCCCC(=O)O)c(Cl)c1Cl)[N+](=O)[O-],155 to 156
13,CCOC(=O)C1=NN(C(=O)c2ccccc2)C(C(=O)OCC)=NN1C(=O)c1ccccc1,134
14,C=C1CC2CC(O)CCC2(C)C2CC(O)C3(C)C(C(C)CCC(=O)O)CCC3C12 (stereo unspecified),199 to 202
15,O=C1CN2Cc3c(ccc(OCC(=O)N(CCO)C4CCCCC4)c3Cl)N=C2N1,237 to 239
16,CNC(=O)c1cccc(-c2ccc3nnn(Cc4ccc5ncccc5c4)c3n2)c1,215 to 217
17,Cc1ccccc1Nc1c(N)cnc2ccccc12,156 to 158
18,CC(C)(C)c1ccc(C(N)=CC#N)cc1,74 to 75
19,O=C1c2ccccc2-c2[nH]nc(-c3ccc(Cl)cc3)c21,> 330
20,CC(C)(C)C(=O)c1ccc(C(=O)NC(=O)c2ccccc2)cc1,121 to 123
21,CCOC(=O)n1c(Cc2ccccc2)noc1=O,129
22,Cc1nnc2cc(-c3ccccc3Cl)c3cc(Cl)ccc3n12,257 to 259
23,COc1ccc(CNc2nc(SC)ncc2C(=O)OCc2ccccn2)cc1Cl,117 to 118
24,CC(C)Oc1ccccc1CN1CCC(=O)C(C(c2ccc(F)cc2)c2ccc(F)cc2)C1 (stereo unspecified),155 to 156

row,Structure (SMILES),melting point [°C]
1,COc1cc(C)nc2c(OCc3c(Cl)ccc(NC(=O)CN4C(=O)c5ccccc5C4=O)c3Cl)cccc12,184 to 185
2,Clc1ccc(-c2ncc(C#Cc3ccccc3)s2)cc1,108 to 110
3,CC(=O)Nc1ccccc1C(=O)Nc1cccc2cc(Br)cnc12,206
4,COC(=O)c1ccc(SC)nc1OC,71 to 75
5,CCOC(=O)c1ccc(C(F)(F)F)c(O)n1,141 to 142
6,Cc1ccc(C(=O)NC(Cc2ccc(C(F)(F)F)cc2)C(=O)c2ccc(F)cc2)c2ccccc12 (stereo unspecified),149 to 150
7,COC(=O)c1ccccc1Nc1c(Cl)cccc1Cl,100 to 103
8,CC(C)N(C(=O)CN1C(=O)CC(=O)N(c2ccccc2)c2ccccc21)c1ccc(C(F)(F)F)cc1,186 to 188
9,N#CC(C#N)(CC=C(Cl)Cl)Cc1ccc(Cl)cc1,67.5
10,O=c1c2c(O)c(O)ccc2c2cc(O)c(O)cc2n1Cc1ccccc1,224 to 225
11,Cc1cncn1-c1cccc([N+](=O)[O-])c1,130 to 132
12,CCCCc1ccc(NC(=O)CBr)c([N+](=O)[O-])c1,56 to 57
13,COc1cccc([C@H](C(C)C)N2CCC(c3noc4cc(F)ccc34)CC2)c1,40 to 42
14,CC1=C(C(=O)OC(C)(C)C)C(c2ccccc2Cl)C(C(=O)OC(C)(C)C)=C(C)N1,194 to 196
15,O=C(c1ccc(F)cc1)C1CCN(CCCN2c3ccccc3-c3ccccc3S2(=O)=O)CC1,114
16,O=C1C(c2ccccc2)OC(=S)N1Nc1ccccc1 (stereo unspecified),140 to 141
17,NC(=O)CNC(=O)c1cccc(-c2cccc3cc(Cc4cc(F)cc(Cl)c4)sc23)c1F,46 to 47
18,CC1=C(C)C(=O)N(C2CCC(O)CC2)C1=O (stereo unspecified),109 to 111
19,COc1ccc(-n2nc(CCN)cc2-c2ccc(Cl)cc2)cc1,95 to 97
20,CCOC(=O)C=Cc1cccc([N+](=O)[O-])c1C,53 to 55
21,COc1ccc(C(=O)C=CC(=O)O)c(OC)c1OC,100
22,COc1cc(OC)nc(NC(=O)NS(=O)(=O)c2ncccc2-c2ccccc2)n1,181
23,CCCCC(=O)NCCC(=O)O,73 to 76
24,CC1(C)CC(=O)c2c(ncc3[nH]c4cc(F)ccc4c23)C1,271 to 273

row,Structure (SMILES),melting point [°C]
1,Cc1cc(C(=O)O)ccc1Sc1ccc2c(c1)C(C)(C)CCC2(C)C,195 to 196
2,CCCc1c(OCc2ccccc2)ccc2c(=O)ccoc12,87.5 to 89
3,Cc1ccc2ccccc2c1COc1ccc(C(=O)NC[C@@H](C(=O)NO)N2CCN(S(C)(=O)=O)CC2)cc1,155
4,CCCCn1c(=O)c(C(=O)Nc2ccncc2)c(O)c2sccc21,212 to 216
5,Cc1noc(C)c1S(=O)(=O)Nc1cccc(C=C2c3ccccc3CCc3ccccc32)c1,149
6,Cn1sc(Cl)c(Cl)c1=O,119 to 120
7,Cc1cc(SCc2oc(-c3ccc(C(F)(F)F)cc3)nc2C)ccc1OCC(=O)O,156 to 157
8,C=CCOc1cc(OCc2ccccc2)ccc1O,62
9,O=P(Oc1ccc2ccccc2c1)(Oc1ccc2ccccc2c1)Oc1ccc2ccccc2c1,110 to 111
10,C=C1OC(=NN)C(c2ccccc2)C(=O)N1C(C)(C)C(=O)Nc1cc(Cl)cc(Cl)c1 (stereo unspecified),146 to 149
11,O=c1ccoc2cc(OCCn3ccnc3)ccc12,131 to 133
12,O=C(O)CCc1cccc(OCc2ccccc2Cl)c1OCc1ccccc1Cl,131 to 132
13,CC(=O)NS(=O)(=O)c1ccc(C2=C(c3ccc(F)c(Cl)c3)CCC2)cc1,127 to 129
14,O=C(O)c1oc(=O)c2ccccc2c1-c1ccc(F)cc1,218 to 220
15,C=CCN1C(=O)C[N+]([O-])=C(c2ccccc2F)c2cc(Cl)ccc21,183
16,CS(=O)(=O)c1ccc(C2=C(c3ccc(-c4cscn4)cc3)C(=O)OC2)cc1,237
17,Brc1cccc2c1Sc1c(Br)cccc1S2,176 to 178
18,CCc1nc2cc(S(N)(=O)=O)c(Cl)cc2n1-c1ccc(CCOC(=O)NS(=O)(=O)c2ccc(C)cc2)cc1,110 to 115
19,Cc1nc(C2CCCCC2)c2nc(-c3ccccc3)cc-2[nH]1,> 280
20,C[C@H]1C(=O)NC(=O)N1CC(=O)Nc1c2c(nc3ccccc13)CCCC2,260 to 263
21,CCOC(=O)c1ccc(C(=O)N(C)C)cc1S(=O)(=O)NC(C)(C)C,101 to 102
22,CN(O)C(=O)C(=Cc1ccc2ccccc2c1)c1ccc(F)cc1,132 to 134
23,COc1ccc(NC(=O)c2ccccc2NC(=O)c2ccc(C(C)(C)C)cc2)cc1,208 to 210
